49 molecules from patent publication US6875743B1, “Cell adhesion inhibitors” (Biogen, Inc., priority 1996, dated 2005) can be followed below.

The target in the assay is T1, VLA4 (Homo sapiens, UniProt P05556+P13612).
T1 construct: endogenous in cells; host or cells: Ramos cells
Briefly: Inhibition of VLA4-dependent adhesion to BSA-CS1. Format: cell-based.

Setting [1] is: binding of BCECF-labelled Ramos cells to BSA-CS1 coated wells, 2 mM MnCl2, read-out: IC50.

Read-outs that look alike come from different tables or passages of the source. Numbered stars: 1 amine (or outer) side, 2 acyl side, 3 side chain; on linkers, the order of the positions; unused ones are H or OH. Square brackets hold non-standard residues; d marks the D form. Peptide text beside a SMILES is read from it. * marks the point of attachment. X1 = O=C(Cc1ccc(N[*:1])cc1)[*:2]; NH(2-Me-phenyl) = Cc1ccccc1N*; CO = O=C([*:1])[*:2]

T1 sequence (P13612 34-1032): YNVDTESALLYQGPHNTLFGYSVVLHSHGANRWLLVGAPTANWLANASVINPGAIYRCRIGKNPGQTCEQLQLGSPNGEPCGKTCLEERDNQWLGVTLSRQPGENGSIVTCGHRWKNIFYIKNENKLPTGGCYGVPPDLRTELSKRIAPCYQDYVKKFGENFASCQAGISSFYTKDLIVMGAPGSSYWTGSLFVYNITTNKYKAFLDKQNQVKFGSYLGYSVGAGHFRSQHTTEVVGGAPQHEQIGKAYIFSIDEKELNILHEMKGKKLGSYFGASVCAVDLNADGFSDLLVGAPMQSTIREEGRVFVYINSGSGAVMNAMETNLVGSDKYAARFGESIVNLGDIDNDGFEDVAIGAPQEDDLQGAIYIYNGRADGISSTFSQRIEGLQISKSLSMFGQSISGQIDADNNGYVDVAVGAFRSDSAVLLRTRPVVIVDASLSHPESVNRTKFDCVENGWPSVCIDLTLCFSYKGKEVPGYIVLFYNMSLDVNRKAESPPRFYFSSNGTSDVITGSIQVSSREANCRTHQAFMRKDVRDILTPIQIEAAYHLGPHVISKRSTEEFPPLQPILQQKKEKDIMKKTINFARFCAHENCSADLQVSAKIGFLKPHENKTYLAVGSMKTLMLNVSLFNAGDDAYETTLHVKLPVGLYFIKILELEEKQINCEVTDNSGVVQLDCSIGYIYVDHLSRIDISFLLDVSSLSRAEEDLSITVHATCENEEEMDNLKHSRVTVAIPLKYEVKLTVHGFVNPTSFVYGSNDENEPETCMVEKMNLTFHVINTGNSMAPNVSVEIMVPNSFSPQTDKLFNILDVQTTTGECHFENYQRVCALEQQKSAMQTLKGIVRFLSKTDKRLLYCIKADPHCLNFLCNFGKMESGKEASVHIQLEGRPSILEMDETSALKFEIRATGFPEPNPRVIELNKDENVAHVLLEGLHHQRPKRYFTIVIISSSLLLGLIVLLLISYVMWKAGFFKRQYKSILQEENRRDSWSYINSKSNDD
T1 sequence (P05556 21-798): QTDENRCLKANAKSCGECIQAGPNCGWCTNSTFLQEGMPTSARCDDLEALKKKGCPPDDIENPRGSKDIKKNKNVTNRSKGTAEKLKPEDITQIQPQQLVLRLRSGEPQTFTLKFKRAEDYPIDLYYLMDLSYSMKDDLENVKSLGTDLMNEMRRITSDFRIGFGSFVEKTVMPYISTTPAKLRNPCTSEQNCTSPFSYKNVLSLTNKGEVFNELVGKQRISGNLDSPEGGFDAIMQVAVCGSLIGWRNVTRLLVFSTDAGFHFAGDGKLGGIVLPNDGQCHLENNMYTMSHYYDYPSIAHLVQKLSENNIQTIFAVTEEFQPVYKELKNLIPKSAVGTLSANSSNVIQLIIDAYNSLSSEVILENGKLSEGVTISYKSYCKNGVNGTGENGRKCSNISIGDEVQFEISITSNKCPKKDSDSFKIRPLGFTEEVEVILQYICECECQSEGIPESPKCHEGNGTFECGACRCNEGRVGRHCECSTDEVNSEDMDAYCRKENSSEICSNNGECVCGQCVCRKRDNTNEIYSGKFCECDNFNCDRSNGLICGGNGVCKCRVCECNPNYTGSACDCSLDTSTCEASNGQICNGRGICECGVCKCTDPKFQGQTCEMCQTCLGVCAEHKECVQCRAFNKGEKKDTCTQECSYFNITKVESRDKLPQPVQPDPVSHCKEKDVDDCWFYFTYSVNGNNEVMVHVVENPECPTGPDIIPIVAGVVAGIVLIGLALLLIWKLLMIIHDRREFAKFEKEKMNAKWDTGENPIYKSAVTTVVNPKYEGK

Take `Cc1ccccc1NC(=O)Nc1ccc(CC(=O)N[C@@H](CCC(=O)O)C(=O)N[C@@H](CC(=O)O)C(=O)N[C@H](CCC(=O)O)C(N)=O)cc1` [Compound 271]: the concentration for half-maximal inhibition (IC50) under setting [1] is under 0.05 µM. The same measure, in the same setting: next, `Cc1ccccc1NC(=O)Nc1ccc(CC(=O)N[C@@H](CCC(=O)O)C(=O)N[C@@H](CC(=O)O)C(=O)N[C@@H](Cc2c[nH]c3ccccc23)C(N)=O)cc1` [Compound 272]: under 0.05 µM; `Cc1ccccc1NC(=O)Nc1ccc(CC(=O)N[C@@H](CCC(=O)O)C(=O)N[C@@H](CC(=O)O)C(=O)N[C@H](CO)C(N)=O)cc1` [Compound 273]: under 0.05 µM. Regarding `Cc1ccccc1NC(=O)Nc1ccc(CC(=O)N[C@@H](CS)C(=O)N[C@@H](CC(=O)O)C(=O)N[C@H](C(N)=O)C(C)C)cc1` [Compound 274], under setting [1], the half-maximal inhibitory concentration (IC50) is under 0.05 µM.

In the case of `Cc1ccccc1NC(=O)Nc1ccc(CC(=O)N[C@@H](CO)C(=O)N[C@@H](CC(=O)O)C(=O)N[C@@H](CC(=O)O)C(N)=O)cc1` [Compound 275], the IC50 under setting [1] was under 0.05 µM. For the molecule `Cc1ccccc1NC(=O)Nc1ccc(CC(=O)N[C@@H](CO)C(=O)N[C@@H](CC(=O)O)C(=O)N[C@@H](CC(C)C)C(N)=O)cc1` [Compound 276], the IC50 under setting [1] was under 0.05 µM. Same read-out and setting: under `Cc1ccccc1NC(=O)Nc1ccc(CC(=O)N[C@@H](CO)C(=O)N[C@@H](CC(=O)O)C(=O)N[C@H](C(N)=O)C(C)C)cc1` [Compound 277] stands under 0.05 µM; under `Cc1ccccc1NC(=O)Nc1ccc(CC(=O)N[C@@H](CO)C(=O)N[C@@H](CC(=O)O)C(=O)N[C@H](CC(C)C)C(N)=O)cc1` [Compound 278], under 0.05 µM. On to `Cc1ccccc1NC(=O)Nc1ccc(CC(=O)N[C@@H](CO)C(=O)N[C@@H](CC(=O)O)C(=O)N[C@@H](CCC(=O)O)C(N)=O)cc1` [Compound 279], for which the IC50 under setting [1] was under 0.05 µM. In the case of `Cc1ccccc1NC(=O)Nc1ccc(CC(=O)N[C@@H](CO)C(=O)N[C@@H](CC(=O)O)C(=O)N[C@H](C(N)=O)[C@@H](C)O)cc1` [Compound 280], the IC50 under setting [1] is under 0.05 µM. `CSCC[C@H](NC(=O)[C@H](CC(=O)O)NC(=O)[C@H](CO)NC(=O)Cc1ccc(NC(=O)Nc2ccccc2C)cc1)C(N)=O` [Compound 281]: under setting [1], the 50% inhibitory concentration (IC50) was under 0.05 µM.

As for `Cc1ccccc1NC(=O)Nc1ccc(CC(=O)N[C@@H](CO)C(=O)N[C@@H](CC(=O)O)C(=O)N[C@H](CC(N)=O)C(N)=O)cc1` [Compound 282], the half-maximal inhibitory concentration (IC50) under setting [1] was under 0.05 µM.

For the molecule `Cc1ccccc1NC(=O)Nc1ccc(CC(=O)N[C@@H](CO)C(=O)N[C@@H](CC(=O)O)C(=O)N[C@H](CCC(=O)O)C(N)=O)cc1` [Compound 283], the half-maximal inhibitory concentration (IC50) under setting [1] is under 0.05 µM.

`Cc1ccccc1NC(=O)Nc1ccc(CC(=O)N[C@@H](CO)C(=O)N[C@@H](CC(=O)O)C(=O)N[C@@H](Cc2c[nH]c3ccccc23)C(N)=O)cc1` [Compound 284]: the concentration for half-maximal inhibition (IC50) under setting [1] was under 0.05 µM. Turning to `Cc1ccccc1NC(=O)Nc1ccc(CC(=O)N[C@@H](CO)C(=O)N[C@@H](CC(=O)O)C(=O)N[C@H](CO)C(N)=O)cc1` [Compound 285], the half-inhibitory concentration (IC50) under setting [1] was under 0.05 µM. For the molecule `Cc1ccccc1NC(=O)Nc1ccc(CC(=O)N[C@H](CC(C)C)C(=O)N[C@@H](CC(=O)O)C(=O)N[C@@H](CC(=O)O)C(N)=O)cc1` [Compound 286], the concentration for half-maximal inhibition (IC50) under setting [1] was under 0.05 µM. The same measure, in the same setting: next, `Cc1ccccc1NC(=O)Nc1ccc(CC(=O)N[C@H](CC(C)C)C(=O)N[C@@H](CC(=O)O)C(=O)N[C@@H](CC(C)C)C(N)=O)cc1` [Compound 287]: under 0.05 µM.

For the molecule `Cc1ccccc1NC(=O)Nc1ccc(CC(=O)N[C@H](CC(C)C)C(=O)N[C@@H](CC(=O)O)C(=O)N[C@H](C(N)=O)C(C)C)cc1` [Compound 288], the IC50 under setting [1] was under 0.05 µM. On the same count and under the same terms, next, `Cc1ccccc1NC(=O)Nc1ccc(CC(=O)N[C@H](CC(C)C)C(=O)N[C@@H](CC(=O)O)C(=O)N[C@H](CC(C)C)C(N)=O)cc1` [Compound 289]: under 0.05 µM. The same measure, in the same setting: under `Cc1ccccc1NC(=O)Nc1ccc(CC(=O)N[C@H](CC(C)C)C(=O)N[C@@H](CC(=O)O)C(=O)N[C@@H](CCC(=O)O)C(N)=O)cc1` [Compound 290] stands under 0.05 µM; under `Cc1ccccc1NC(=O)Nc1ccc(CC(=O)N[C@H](CC(C)C)C(=O)N[C@@H](CC(=O)O)C(=O)N[C@H](C(N)=O)[C@@H](C)O)cc1` [Compound 291], under 0.05 µM; under `CSCC[C@H](NC(=O)[C@H](CC(=O)O)NC(=O)[C@@H](CC(C)C)NC(=O)Cc1ccc(NC(=O)Nc2ccccc2C)cc1)C(N)=O` [Compound 292], under 0.05 µM. Turning to `Cc1ccccc1NC(=O)Nc1ccc(CC(=O)N[C@H](CC(C)C)C(=O)N[C@@H](CC(=O)O)C(=O)N[C@H](CC(N)=O)C(N)=O)cc1` [Compound 293], under setting [1], the IC50 is under 0.05 µM. As to `Cc1ccccc1NC(=O)Nc1ccc(CC(=O)N[C@H](CC(C)C)C(=O)N[C@@H](CC(=O)O)C(=O)N[C@H](CCC(=O)O)C(N)=O)cc1` [Compound 294], the concentration for half-maximal inhibition (IC50) under setting [1] was under 0.05 µM. Still for that read-out and setting: next, `Cc1ccccc1NC(=O)Nc1ccc(CC(=O)N[C@H](CC(C)C)C(=O)N[C@@H](CC(=O)O)C(=O)N[C@@H](Cc2c[nH]c3ccccc23)C(N)=O)cc1` [Compound 295]: under 0.05 µM. Regarding `Cc1ccccc1NC(=O)Nc1ccc(CC(=O)NC(CC(C)C)C(=O)NC(CC(=O)O)C(=O)NC(CO)C(N)=O)cc1` (stereo not shown) [Compound 296], the 50% inhibitory concentration (IC50) under setting [1] is under 0.05 µM. The same measure, in the same setting: next, `Cc1ccccc1NC(=O)Nc1ccc(CC(=O)N[C@@H](CCC(N)=O)C(=O)N[C@@H](CC(=O)O)C(=O)N[C@@H](CC(=O)O)C(N)=O)cc1` [Compound 297]: under 0.05 µM; `Cc1ccccc1NC(=O)Nc1ccc(CC(=O)N[C@@H](CCC(N)=O)C(=O)N[C@@H](CC(=O)O)C(=O)N[C@@H](CC(C)C)C(N)=O)cc1` [Compound 298]: under 0.05 µM; `Cc1ccccc1NC(=O)Nc1ccc(CC(=O)N[C@@H](CCC(N)=O)C(=O)N[C@@H](CC(=O)O)C(=O)N[C@H](C(N)=O)C(C)C)cc1` [Compound 299]: under 0.05 µM. On to `Cc1ccccc1NC(=O)Nc1ccc(CC(=O)N[C@@H](CCC(N)=O)C(=O)N[C@@H](CC(=O)O)C(=O)N[C@H](CC(C)C)C(N)=O)cc1` [Compound 300], for which, under setting [1], the IC50 is under 0.05 µM. On the same count and under the same terms, next, `Cc1ccccc1NC(=O)Nc1ccc(CC(=O)N[C@@H](CCC(N)=O)C(=O)N[C@@H](CC(=O)O)C(=O)N[C@@H](CCC(=O)O)C(N)=O)cc1` [Compound 301]: under 0.05 µM; `Cc1ccccc1NC(=O)Nc1ccc(CC(=O)N[C@@H](CCC(N)=O)C(=O)N[C@@H](CC(=O)O)C(=O)N[C@H](C(N)=O)[C@@H](C)O)cc1` [Compound 302]: under 0.05 µM. On the same count and under the same terms, under `CSCC[C@H](NC(=O)[C@H](CC(=O)O)NC(=O)[C@H](CCC(N)=O)NC(=O)Cc1ccc(NC(=O)Nc2ccccc2C)cc1)C(N)=O` [Compound 303] stands under 0.05 µM; under `Cc1ccccc1NC(=O)Nc1ccc(CC(=O)N[C@@H](CCC(N)=O)C(=O)N[C@@H](CC(=O)O)C(=O)N[C@H](CCC(=O)O)C(N)=O)cc1` [Compound 305], under 0.05 µM.

Consider `Cc1ccccc1NC(=O)Nc1ccc(CC(=O)N[C@@H](CCC(N)=O)C(=O)N[C@@H](CC(=O)O)C(=O)N[C@@H](Cc2c[nH]c3ccccc23)C(N)=O)cc1` [Compound 306], for which, under setting [1], the IC50 is under 0.05 µM. In the case of `Cc1ccccc1NC(=O)Nc1ccc(CC(=O)NC(CCC(N)=O)C(=O)NC(CC(=O)O)C(=O)NC(CO)C(N)=O)cc1` (stereo not shown) [Compound 307], the IC50 under setting [1] is under 0.05 µM. For `CSCC[C@H](NC(=O)Cc1ccc(NC(=O)Nc2ccccc2C)cc1)C(=O)N[C@@H](CCC(=O)O)C(=O)N[C@@H](CC(=O)O)C(N)=O` [Compound 308], under setting [1], the concentration for half-maximal inhibition (IC50) is under 0.05 µM.

In the case of `CSCC[C@H](NC(=O)Cc1ccc(NC(=O)Nc2ccccc2C)cc1)C(=O)N[C@@H](CCC(=O)O)C(=O)N[C@H](C(N)=O)C(C)C` [Compound 309], the IC50 under setting [1] was under 0.05 µM.

Regarding `Cc1ccccc1NC(=O)Nc1ccc(CC(=O)N[C@@H](CC(C)C)C(=O)N[C@@H](CCC(=O)O)C(=O)N[C@@H](CC(=O)O)C(N)=O)cc1` [Compound 310], under setting [1], the IC50 is under 0.05 µM. Still for that read-out and setting: next, `Cc1ccccc1NC(=O)Nc1ccc(CC(=O)N[C@@H](CC(C)C)C(=O)N[C@@H](CCC(=O)O)C(=O)N[C@H](C(N)=O)C(C)C)cc1` [Compound 311]: under 0.05 µM. Still for that read-out and setting: under `Cc1ccccc1NC(=O)Nc1ccc(CC(=O)N2CCC[C@H]2C(=O)N[C@@H](CCC(=O)O)C(=O)N[C@@H](CC(=O)O)C(N)=O)cc1` [Compound 312] stands under 0.05 µM. Turning to `Cc1ccccc1NC(=O)Nc1ccc(CC(=O)N2CCC[C@H]2C(=O)N[C@@H](CCC(=O)O)C(=O)N[C@H](C(N)=O)C(C)C)cc1` [Compound 313], under setting [1], the half-inhibitory concentration (IC50) is under 0.05 µM.

As to `Cc1ccccc1NC(=O)Nc1ccc(CC(=O)N[C@H](C(=O)N[C@@H](CCC(=O)O)C(=O)N[C@@H](CC(=O)O)C(N)=O)[C@@H](C)O)cc1` [Compound 314], the IC50 under setting [1] was under 0.05 µM.

On to `Cc1ccccc1NC(=O)Nc1ccc(CC(=O)NC(CC(C)C)C(=O)NC(CC(=O)O)C(=O)NC(C(=O)N2CCOCC2)C(C)C)cc1` (stereo not shown) [Compound 329], for which the IC50 under setting [1] is under 0.05 µM. On the same count and under the same terms, next, `COC(=O)[C@@H](NC(=O)[C@H](CC(=O)O)N1CCC(NC(=O)OCc2ccccc2)C1=O)C(C)C` (stereo partly shown) [Compound 334]: over 10 µM; `COC(=O)[C@@H](NC(=O)[C@H](CC(=O)O)N1CCC(NC(=O)CCc2ccc(O)cc2)C1=O)C(C)C` (stereo partly shown) [Compound 335]: over 10 µM. On to `Cc1ccccc1NC(=O)Nc1ccc(CC(=O)N[C@@H](CC(C)C)C(=O)N[C@@H](CC(=O)O)C(=O)N[C@H](C(=O)N2CCC[C@H]2C(=O)N[C@@H](CO)C(=O)O)C(C)C)cc1` [Compound 337] ({NH(2-Me-phenyl)-CO}-[X1]LDVPS-OH), for which the half-inhibitory concentration (IC50) under setting [1] is under 0.05 µM. `Cc1ccccc1NC(=O)Nc1ccc(CC(=O)N[C@@H](CC(C)C)C(=O)N[C@@H](CC(=O)O)C(=O)N[C@H](C(=O)N2CCC[C@H]2C(=O)N[C@@H](CO)C(=O)N[C@H](C(=O)O)[C@@H](C)O)C(C)C)cc1` [Compound 338] ({NH(2-Me-phenyl)-CO}-[X1]LDVPST-OH) gave a 50% inhibitory concentration (IC50) of under 0.05 µM. With `Cc1ccccc1NC(=O)Nc1ccc(CC(=O)N[C@H](C(=O)N[C@@H](CC(C)C)C(=O)N2CCC[C@H]2C(=O)N[C@@H](CC(=O)O)C(=O)O)C(C)C)cc1` [Compound 339] ({NH(2-Me-phenyl)-CO}-[X1]VLPD-OH), the IC50 under setting [1] is over 10 µM.

As usually defined, the IC50 is the concentration that inhibits the measured activity by half.
